Experimental data reported in patent US20220298115A1, “SMALL MOLECULE INHIBITORS OF ACETYL COENZYME A SYNTHETASE SHORT CHAIN 2 (ACSS2)” (Curadev Pharma Pvt. Ltd., priority 2019, published 2022).
Like-named read-outs stand apart in the source and are kept apart here.

How the values were obtained:
human ACSS2 = molecular target: T1, human ACSS2 (Homo sapiens, UniProt Q9NR19); experiment: ACSS2 enzyme assay (acetyl-CoA formation, LC-MS/MS); assay type: biochemical; details: cytosolic fraction of BT474 cells as ACSS2 source; 100 μM acetate, CoA and ATP; 2 h at 25° C.; read-out: Enzyme Activity (IC50 range)
T1 construct: The cytosolic fraction of BT474 cells was used as a source of the ACSS2 enzyme; endogenous in cells; host or cells: BT474 cells (cytosolic fraction)
T1 sequence (Q9NR19 whole entry): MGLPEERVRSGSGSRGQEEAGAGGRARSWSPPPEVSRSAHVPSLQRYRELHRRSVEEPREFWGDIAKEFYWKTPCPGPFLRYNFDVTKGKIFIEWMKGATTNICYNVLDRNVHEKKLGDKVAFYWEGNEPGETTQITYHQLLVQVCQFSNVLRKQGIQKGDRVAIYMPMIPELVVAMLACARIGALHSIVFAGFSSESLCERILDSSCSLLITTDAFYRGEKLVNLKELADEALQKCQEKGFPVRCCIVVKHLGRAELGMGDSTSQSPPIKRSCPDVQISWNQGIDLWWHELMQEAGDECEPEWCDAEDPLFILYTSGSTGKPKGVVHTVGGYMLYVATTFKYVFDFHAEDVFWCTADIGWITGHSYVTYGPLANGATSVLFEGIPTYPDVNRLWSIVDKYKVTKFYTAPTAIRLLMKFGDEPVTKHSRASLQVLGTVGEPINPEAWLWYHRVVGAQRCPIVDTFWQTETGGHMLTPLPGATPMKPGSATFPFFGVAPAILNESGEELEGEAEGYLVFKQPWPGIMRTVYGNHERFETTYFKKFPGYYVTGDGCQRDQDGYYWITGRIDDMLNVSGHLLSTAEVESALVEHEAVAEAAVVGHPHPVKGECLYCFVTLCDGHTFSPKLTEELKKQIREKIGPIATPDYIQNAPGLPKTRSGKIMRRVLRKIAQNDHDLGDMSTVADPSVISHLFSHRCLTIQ
Procedure: Novel compounds were screened in a human ACSS2 enzyme assay. Briefly, the ACSS2 enzyme reaction was monitored by directly measuring acetyl-CoA formation. The cytosolic fraction of BT474 cells was used as a source of the ACSS2 enzyme. A short protocol for this assay is provided below.
Preparation of Cytosolic Fraction from BT474 Cells
9×10^6 cells were harvested by trypsinization followed by centrifugation. The cell pellet was washed with PBS and dissolved in 500 μl STM buffer (50 mM Tris-HCl pH7.4, 250 mM sucrose, 5 mM MgCl2 & protease-phosphatase inhibitor cocktail) and homogenized at 600-1000 rpm for 1 min. on ice followed by incubation for 30 min. with intermittent vortexing. Supernatant was collected by centrifugation at 800 g for 15 min. at 4° C. Cytosolic fraction was prepared by further centrifugation of the supernatant at 12000 g for 15 min. at 4° C. Total protein content of the cytosolic fraction was estimated & diluted to 1 mg/ml concentration in storage buffer (25 mM Tris-HCl pH7.4, 1 mM MgCl2, 1 mM DTT & 10% glycerol) and stored at −80° C. for further use.
100 ng of cytosolic fraction in buffer composed of 25 mM Tris-HCl pH7.4 1 mM MgCl2, 1 mM DTT & 0.05% Tween20 was preincubated with desired concentrations of novel compounds for 5 min. maintaining 1% DMSO. Reaction was started with addition of substrate mix (100 μM of acetate, CoA and ATP) and incubated for 2 h at 25° C. with constant shaking at 500 rpm. Post incubation the reaction was terminated by addition of 10% TCA followed by 5 fold dilution in water. The reaction mixture was centrifuged at 800 g for 10 min. at RT and acetyl-CoA detected in supernatant by LC-MS/MS (QTrap5500 ABSCIEX).

[1] = test system: [14C] acetate incorporation in macromolecules, BT474 cells; experiment: Cell based [14C] acetate incorporation assay; details: read-out: Cellular Activity (IC50 range)
Procedure: Cell Based [^14C] Acetate Incorporation Assay
In the cellular assay, ACSS2 inhibitors were screened against [^14C] acetate incorporation in macromolecules. 4×10^4 BT474 cells were plated in 96 well plates in growth media composed of DMEM & 10% FBS and incubated overnight in a 37° C., 5% CO2 incubator. The following day the cells were washed in HBSS and the assay was performed in 100 μl of HBSS. 50 μl of 4× compound in 4% DMSO was added to the cells and preincubated for 10 min. at 37° C. 50 μl of acetate solution (0.1 μCi ^14C acetate+10 μM ^12C acetate) was added to each well of the plate and incubated for 3 h in a 37° C., 5% CO2 incubator. Following incubation, cells were harvested with water on polyethylene imine (PEI) presoaked GF/C filtermat, air dried and radioactive count were recorded in Trilux micro beta Liquid Scintillation Counter (PerkinElmer).

[2] = Homo sapiens, BT-474, 3 h at 37° C.

Structure (SMILES) | IC50 (human ACSS2) [nM] | IC50 [1, 2] [nM] | IC50 ([1]; 3 h at 37° C.) [nM]
CCC(O)CNC(=O)Nc1ccc2nc(-c3ccccc3)c(-c3ccccc3)cc2c1 (stereo not drawn) [Example 1, 1-(2,3-diphenylquinolin-6-yl)-3-(2-hydroxybutyl) urea] | < 100 | < 100 | –
CC[C@@H](O)CNC(=O)Nc1ccc2nc(-c3ccccc3)c(-c3ccccc3)cc2c1 [Example 2, (R)-1-(2,3-diphenylquinolin-6-yl)-3-(2-hydroxybutyl) urea] | < 100 | < 100 | –
CCCCNC(=O)Nc1ccc2nc(-c3ccccc3)c(-c3ccccc3)cc2c1 [Example 3, 1-butyl-3-(2,3-diphenylquinolin-6-yl)urea] | < 100 | < 100 | –
CCC(O)CNC(=O)Nc1ccc2nc(-c3ccccc3F)c(-c3ccccc3F)cc2c1 (stereo not drawn) [Example 4, 1-(2,3-bis(2-fluorophenyl)quinolin-6-yl)-3-(2-hydroxybutyl) urea] | < 100 | < 100 | –
CCCCNC(=O)Nc1ccc2nc(-c3ccccc3)c(-c3ccccc3)cc2c1-c1cccnc1O [Example 5, 1-butyl-3-(5-(2-hydroxypyridin-3-yl)-2,3-diphenylquinolin-6-yl)urea] | < 100 | < 100 | –
CCC(O)CNC(=O)Nc1ccc2nc(-c3ccccc3OC)c(-c3ccccc3OC)cc2c1 (stereo not drawn) [Example 6, 1-(2,3-bis(2-methoxyphenyl)quinolin-6-yl)-3-(2-hydroxybutyl) urea] | < 100 | < 100 | –
CCC(O)CNC(=O)Nc1ccc2nc(-c3ccccc3)c(-c3ccccc3F)cc2c1 (stereo not drawn) [Example 7, 1-(3-(2-fluorophenyl)-2-phenylquinolin-6-yl)-3-(2-hydroxybutyl) urea] | < 100 | < 100 | –
CCC(O)CNC(=O)Nc1ccc2nc(-c3ccccc3F)c(-c3ccccc3)cc2c1 (stereo not drawn) [Example 8, 1-(2-(2-fluorophenyl)-3-phenylquinolin-6-yl)-3-(2-hydroxybutyl) urea] | < 100 | < 100 | –
CCC(O)CNC(=O)Nc1ccc2nc(-c3ccnc(OC)c3)c(-c3ccnc(OC)c3)cc2c1 (stereo not drawn) [Example 9, 1-(2,3-bis(2-methoxypyridin-4-yl)quinolin-6-yl)-3-(2-hydroxybutyl) urea] | > 10000 | ≤ 10000 | –
CCC(O)CNC(=O)Nc1ccc2nc(-c3ccccc3)c(-c3ccccc3OC)cc2c1 (stereo not drawn) [Example 10, 1-(2-hydroxybutyl)-3-(3-(2-methoxyphenyl)-2-phenylquinolin-6-yl)urea] | < 100 | < 100 | –
CCC(O)CNC(=O)Nc1ccc2nc(-c3ccc(OC)nc3)c(-c3ccc(OC)nc3)cc2c1 (stereo not drawn) [Example 11, 1-(2,3-bis(6-methoxypyridin-3-yl)quinolin-6-yl)-3-(2-hydroxybutyl) urea] | ≤ 1000 | ≤ 10000 | –
CCC(O)CNC(=O)Nc1ccc2nc(-c3ccccc3OC)c(-c3ccccc3)cc2c1 (stereo not drawn) [Example 12, 1-(2-hydroxybutyl)-3-(2-(2-methoxyphenyl)-3-phenylquinolin-6-yl)urea] | < 100 | < 100 | –
CCC(O)CNC(=O)Nc1ccc2nc(-c3cccnc3OC)c(-c3cccnc3OC)cc2c1 (stereo not drawn) [Example 13, 1-(2,3-bis(2-methoxypyridin-3-yl)quinolin-6-yl)-3-(2-hydroxybutyl) urea] | ≤ 1000 | ≤ 1000 | –
CCCCNC(=O)Nc1ccc2nc(-c3ccccc3F)c(-c3ccccc3F)cc2c1 [Example 14, 1-(2,3-bis(2-fluorophenyl)quinolin-6-yl)-3-butylurea] | < 100 | < 100 | –
CC[C@@H](O)CNC(=O)Nc1ccc2nc(-c3ccccc3)c(-c3ccccc3F)cc2c1 [Example 15, (R)-1-(3-(2-Fluorophenyl)-2-phenylquinolin-6-yl)-3-(2-hydroxybutyl)urea] | < 100 | < 100 | –

Second part, the molecule after the results:

IC50 (human ACSS2) [nM] | IC50 [1, 2] [nM] | IC50 ([1]; 3 h at 37° C.) [nM] | Structure (SMILES)
< 100 | < 100 | – | CCCCNC(=O)Nc1ccc2nc(-c3ccccc3)c(-c3ccccc3F)cc2c1 [Example 16, 1-butyl-3-(3-(2-fluorophenyl)-2-phenylquinolin-6-yl)urea]
< 100 | < 100 | – | CCC(O)CNC(=O)Nc1ccc2nc(-c3ccc(F)cc3)c(-c3ccc(F)cc3)cc2c1 (stereo not drawn) [Example 17, 1-(2,3-bis(4-fluorophenyl)quinolin-6-yl)-3-(2-hydroxybutyl) urea]
< 100 | < 100 | – | CCC(O)CNC(=O)Nc1ccc2nc(-c3ccccc3OC)c(-c3ccccc3F)cc2c1 (stereo not drawn) [Example 18, 1-(3-(2-fluorophenyl)-2-(2-methoxyphenyl)quinolin-6-yl)-3-(2-hydroxybutyl) urea]
< 100 | ≤ 10000 | – | CCC(O)CNC(=O)Nc1ccc2nc(-c3cccnc3)c(-c3cccnc3)cc2c1 (stereo not drawn) [Example 19, 1-(2,3-di(pyridin-3-yl)quinolin-6-yl)-3-(2-hydroxybutyl) urea]
< 100 | < 100 | – | CC[C@@H](O)CNC(=O)Nc1ccc2nc(-c3ccccc3F)c(-c3ccccc3F)cc2c1 [Example 20, (R)-1-(2,3-Bis(2-fluorophenyl)quinolin-6-yl)-3-(2-hydroxybutyl)urea]
≤ 10000 | ≤ 10000 | – | CCC(O)CNC(=O)Nc1ccc2nc(-c3cccc(C(C)=O)c3)c(-c3cccc(C(C)=O)c3)cc2c1 (stereo not drawn) [Example 21, 1-(2,3-bis(3-acetylphenyl)quinolin-6-yl)-3-(2-hydroxybutyl) urea]
≤ 10000 | > 10000 | – | CCC(O)CNC(=O)Nc1ccc2nc(-c3cn[nH]c3)c(-c3cn[nH]c3)cc2c1 (stereo not drawn) [Example 22, 1-(2,3-di(1H-pyrazol-4-yl)quinolin-6-yl)-3-(2-hydroxybutyl) urea]
< 100 | < 100 | – | CCCCNC(=O)Nc1ccc2nc(-c3ccccc3)c(-c3ccccc3OC)cc2c1 [Example 23, 1-butyl-3-(3-(2-methoxyphenyl)-2-phenylquinolin-6-yl)urea]
≤ 1000 | ≤ 10000 | – | CCC(O)CNC(=O)Nc1ccc2nc(-c3ccncc3)c(-c3ccncc3)cc2c1 (stereo not drawn) [Example 24, 1-(2,3-di(pyridin-4-yl)quinolin-6-yl)-3-(2-hydroxybutyl) urea]
≤ 1000 | ≤ 1000 | – | CCC(O)CNC(=O)Nc1ccc2nc(-c3cccc(F)c3)c(-c3cccc(F)c3)cc2c1 (stereo not drawn) [Example 25, 1-(2,3-bis(3-fluorophenyl)quinolin-6-yl)-3-(2-hydroxybutyl) urea]
< 100 | < 100 | – | CCC(O)CNC(=O)Nc1ccc2nc(-c3ccccc3F)c(-c3ccccc3OC)cc2c1 (stereo not drawn) [Example 26, 1-(2-(2-fluorophenyl)-3-(2-methoxyphenyl)quinolin-6-yl)-3-(2-hydroxybutyl) urea]
≤ 1000 | ≤ 10000 | – | CCC(O)CNC(=O)Nc1ccc2nc(-c3ccc(=O)[nH]c3)c(-c3ccc(=O)[nH]c3)cc2c1 (stereo not drawn) [Example 27, 1-(2,3-bis(6-oxo-1,6-dihydropyridin-3-yl)quinolin-6-yl)-3-(2-hydroxybutyl) urea]
< 100 | < 100 | – | CC[C@H](O)CNC(=O)Nc1ccc2nc(-c3ccccc3F)c(-c3ccccc3F)cc2c1 [Example 28, (S)-1-(2,3-bis(2-fluorophenyl)quinolin-6-yl)-3-(2-hydroxybutyl) urea]
> 10000 | > 10000 | – | CCC(O)CNC(=O)Nc1ccc2nc(-c3ccnc(O)c3)c(-c3ccnc(O)c3)cc2c1 (stereo not drawn) [Example 29, 1-(2,3-bis(2-hydroxypyridin-4-yl)quinolin-6-yl)-3-(2-hydroxybutyl) urea]
< 100 | < 100 | – | CC[C@H](O)CNC(=O)Nc1ccc2nc(-c3ccccc3)c(-c3ccccc3)cc2c1 [Example 30, (S)-1-(2,3-diphenylquinolin-6-yl)-3-(2-hydroxybutyl) urea]
< 100 | < 100 | – | CCC(O)CNC(=O)Nc1ccc2nc(-c3cccnc3)c(-c3ccccc3F)cc2c1 (stereo not drawn) [Example 31, 1-(3-(2-fluorophenyl)-2-(pyridin-3-yl)quinolin-6-yl)-3-(2-hydroxybutyl) urea]
– | – | < 100 | CC[C@H](O)CNC(=O)Nc1ccc2nc(-c3ccccc3)c(-c3ccccc3)cc2c1 [Example 68, (S)-1-(2,3-diphenylquino-lin-6-yl)-3-(2-hydroxybutyl) urea]
